# From PubChem BioAssay (NCI)
# “And” between values parts separate entries of the source, which are not always exact repeats. Equal values may be shown once.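 Test compounds were applied to cells in 96-well plates for 48 hours at 5 doses. At the GI50, growth is halved. The concentration for full growth arrest is given as TGI.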
# Legend:
# Assay in all cases: NCI tumour cell line growth inhibition, 48 h
# [1] = system: M19-MEL melanoma
# [2] = system: A549 NSCLC
# [3] = system: LOX IMVI melanoma
# [4] = system: DMS 273 small cell lung
# [5] = system: HCT-15 colon
# [6] = system: CAKI-1 renal
# [7] = system: SK-MEL-5 melanoma
# [8] = system: SNB-19 CNS
# [9] = system: HCC-2998 colon
# [10] = system: KM12 colon
# [11] = system: NCI-H226 lung
# [12] = system: A498 renal
# [13] = system: SF-295 CNS
# [14] = system: HOP-92 NSCLC
# [15] = system: HCT-116 colon
# [16] = system: SF-268 CNS
# [17] = system: NCI-H522 lung
# [18] = system: U251 CNS
# [19] = system: MALME-3M melanoma
# [20] = system: HL-60(TB) leukemia
# [21] = system: SW-620 colon
# [22] = system: NCI-H23 lung
# [23] = system: COLO 205 colon
# [24] = system: SK-OV-3 ovarian
# [25] = system: EKVX NSCLC
# [26] = system: KM20L2 colon
# [27] = system: SN12C renal
# [28] = system: RXF 393 renal
# [29] = system: MCF7 breast
# [30] = system: SNB-78 CNS
# [31] = system: SF-539 CNS
# [32] = system: SK-MEL-28 melanoma
# [33] = system: UACC-257 melanoma
# [34] = system: IGROV1 ovarian
# [35] = system: UO-31 renal
# [36] = system: OVCAR-4 ovarian
# [37] = system: SNB-75 CNS
# [38] = system: XF 498 CNS
# [39] = system: UACC-62 melanoma
# [40] = system: TK-10 renal
# [41] = system: HOP-18 NSCLC
# [42] = system: RPMI-8226 leukemia
# [43] = system: NCI-H460 lung
# [44] = system: HOP-62 NSCLC
# [45] = system: DLD-1 colon
# [46] = system: OVCAR-5 ovarian
# [47] = system: P388 leukemia
# [48] = system: OVCAR-8 ovarian
# [49] = system: SN12K1 renal
# [50] = system: HT29 colon
# [51] = system: CCRF-CEM leukemia
# [52] = system: OVCAR-3 ovarian
# [53] = system: NCI/ADR-RES ovarian
# [54] = system: MOLT-4 leukemia
# [55] = system: DMS 114 small cell lung
# [56] = system: SK-MEL-2 melanoma
# [57] = system: P388/ADR leukemia
# [58] = system: K-562 leukemia
smiles,measurement,setting,value
C=CC1(C)CC(=O)C2(O)C(C)(O1)C(OC(C)=O)C(O)C1C(C)(C)CCC(O)C12C (stereo not drawn),TGI,[1],> 127 µM
same,TGI,[2],> 150 µM
same,TGI,[3],> 150 µM
same,TGI,[4],> 150 µM
same,TGI,[5],> 150 µM
same,GI50,[6],> 55.2 µM
same,TGI,[6],58.8 µM
same,TGI,[7],> 102 µM
same,TGI,[8],> 150 µM
same,TGI,[9],> 150 µM
same,GI50,[10],2.37 µM
same,TGI,[10],> 150 µM
same,TGI,[11],> 72.8 µM
same,TGI,[12],> 150 µM
same,TGI,[13],> 150 µM
same,GI50,[14],20.3 µM
same,TGI,[14],> 150 µM
same,TGI,[15],> 150 µM
same,TGI,[16],> 150 µM
same,TGI,[17],> 150 µM
same,TGI,[18],> 94.6 µM
same,TGI,[19],> 150 µM
same,TGI,[20],> 137 µM
same,TGI,[21],> 150 µM
same,TGI,[22],> 150 µM
same,TGI,[23],> 122 µM
same,TGI,[24],> 120 µM
same,TGI,[25],> 150 µM
same,TGI,[26],> 150 µM
same,GI50,[27],> 49 µM
same,TGI,[27],> 102 µM
same,GI50,[28],4.98 µM
same,TGI,[28],90.6 µM and > 119 µM
same,TGI,[29],> 115 µM
same,TGI,[30],> 150 µM
same,TGI,[31],> 150 µM
same,TGI,[32],> 150 µM
same,TGI,[33],> 150 µM
same,GI50,[34],> 77.2 µM
same,TGI,[34],> 121 µM
same,GI50,[35],> 72.5 µM
same,TGI,[35],> 137 µM
same,TGI,[36],> 122 µM
same,GI50,[37],4.13 µM
same,TGI,[37],> 150 µM
same,TGI,[38],142 µM
same,TGI,[39],101 µM
same,TGI,[40],> 34.6 µM
same,TGI,[41],> 138 µM
same,GI50,[42],> 57.2 µM
same,TGI,[42],120 µM
same,TGI,[43],> 150 µM
same,GI50,[44],> 83.2 µM
same,TGI,[44],> 150 µM
same,TGI,[45],> 150 µM
same,TGI,[46],45.5 µM
same,TGI,[47],> 150 µM
same,TGI,[48],> 150 µM
same,TGI,[49],> 150 µM
same,TGI,[50],> 150 µM
same,GI50,[51],> 65.8 µM
same,TGI,[51],> 150 µM
same,TGI,[52],> 150 µM
same,TGI,[53],> 130 µM
same,GI50,[54],> 91.2 µM
same,TGI,[54],> 150 µM
same,GI50,[55],> 71.6 µM
same,TGI,[55],> 108 µM
same,TGI,[56],> 150 µM
same,TGI,[57],> 84.4 µM
same,TGI,[58],> 150 µM
CCOC(=O)CNC(=O)NC12CC3CC(CC(C3)C1)C2,TGI,[1],369 µM
same,TGI,[2],> 550 µM
same,TGI,[3],> 550 µM
same,TGI,[4],> 550 µM
same,TGI,[5],> 550 µM
same,TGI,[6],> 487 µM
same,TGI,[7],330 µM
same,TGI,[8],548 µM
same,TGI,[9],319 µM
same,TGI,[10],> 449 µM
same,TGI,[11],> 473 µM
same,TGI,[12],462 µM
same,TGI,[13],> 550 µM
same,TGI,[14],216 µM
same,TGI,[15],> 550 µM
same,TGI,[16],> 550 µM
same,TGI,[17],> 536 µM
same,TGI,[18],> 550 µM
same,TGI,[19],420 µM
same,TGI,[20],543 µM
same,TGI,[21],> 550 µM
same,TGI,[22],> 515 µM
same,TGI,[23],363 µM
same,TGI,[24],> 517 µM
same,TGI,[25],> 347 µM
same,TGI,[26],> 550 µM
same,TGI,[27],> 550 µM
same,TGI,[28],259 µM
same,TGI,[29],505 µM
same,TGI,[30],> 520 µM
same,TGI,[31],> 550 µM
same,TGI,[32],> 539 µM
same,TGI,[33],477 µM
same,TGI,[34],> 550 µM
same,TGI,[35],512 µM
same,TGI,[36],> 550 µM
same,TGI,[37],408 µM
same,TGI,[38],246 µM
same,TGI,[39],416 µM
same,TGI,[41],537 µM
same,TGI,[42],> 550 µM
same,TGI,[43],> 460 µM
same,TGI,[44],> 502 µM
same,TGI,[45],> 87.2 µM
same,TGI,[46],> 550 µM
same,TGI,[47],430 µM
same,TGI,[48],> 550 µM
same,TGI,[49],503 µM
same,TGI,[50],> 550 µM
same,TGI,[51],> 550 µM
same,TGI,[52],398 µM
same,TGI,[53],> 550 µM
same,TGI,[54],> 550 µM
same,TGI,[55],> 511 µM
same,TGI,[56],372 µM
same,TGI,[57],> 550 µM
same,TGI,[58],> 550 µM
